Laboratory results: PMC3906007, “Discovery of a Small Molecule Agonist of Phosphatidylinositol 3-Kinase p110α That Reactivates Latent HIV-1” (PLoS ONE, 2014)

Experiments:
[1] = test system: latent HIV-1 in J89GFP cells; experiment: Latent HIV-1 reactivation in J89GFP cells (EGFP positive cells, flow cytometry); assay type: cell-based; details: J89GFP
Experimental: Three different cell lines of HIV-1 latency were used in this study. These included J89GFP, U1 and ACH-2 cells. The J89GFP cells were a kind gift from Dr. David Levy. The ACH-2 and U1 cells were obtained through the AIDS Research and Reference Reagent Program, Division of AIDS, NIAID, NIH: Dr. Thomas Folks contributor [19]–[21]. Reactivation of latent HIV-1 in the J89GFP cells was measured by quantifying the percentage of EGFP positive cells using a BD FACScan flow cytometer with BD FACSDiva software (BD Biosciences, CA), as described previously. Reactivation of latent HIV-1 in the ACH-2 and U 1 cells was assessed by quantitative analysis of initiated and elongated HIV-1 transcripts, as described previously. All 3 cell lines were maintained in RMPI 1640 medium supplemented with 10% FBS, 0.3 mg/mL L-glutamine, 100 U/mL penicillin, and 100 µg/mL streptomycin at 37°C in humidified air with 5% CO2.
To identify novel activators of latent HIV-1 expression, we screened 640 pure natural products from the TimTec Natural Compound Library at a concentration of 10 ng/mL for 24 hrs in a Jurkat cell (J89GFP) model of latency for their cytotoxicity and ability to reactivate HIV-1 expression. J89GFP cells contain a stably integrated, full-length HIV-1 provirus with an enhanced GFP (EGFP) reporter incorporated into the viral genome. The viral genome in these cells is transcriptionally silent. However, upon stimulation viral transcription is activated and viral expression can be measured by EGFP production. […].

T cell = test system: T cell; parameters: method as in PMID 22732922; details: cited from earlier work
[2] = parameters: method as in PMID 20936324; details: phase II clinical trial, ovarian cancer; cited from earlier work
[3] = Cytotoxicity (MTT or CellTiter 96), Jurkat; assay type: cell-based; details: human, Jurkat cells; 24 hour incubation; mean ± SD, 3 replicates
Experimental: (§1) Following a 24 hour incubation period, cell viability was measured using either the MTT (Roche Applied Science, Indianapolis, IN) or CellTiter 96 proliferation (Promega, WI) assay.

[4] = Cytotoxicity (MTT or CellTiter 96), HeLa; assay type: cell-based; details: human, HeLa cells; 24 hour incubation; mean ± SD, 3 replicates
Experimental: as §1

[5] = Cytotoxicity (MTT or CellTiter 96), 293T; assay type: cell-based; details: human, 293T cells; 24 hour incubation; mean ± SD, 3 replicates
Experimental: as §1

[6] = Cytotoxicity (MTT or CellTiter 96), CD8+-depleted MNC; assay type: cell-based; details: human, CD8+-depleted mononuclear cells (MNC) from whole blood; 24 hour incubation; mean of 2 replicates
Experimental: as §1
(§2) CD8+T-cells were depleted from whole blood using RosetteSep Human CD8 Depletion Cocktail (StemCell Technologies, Vancouver, BC) according to manufacturer's instructions. 2×10^6 CD4^+ MNC cells were seeded in triplicate per treatment in 48-well plates and allowed to rest overnight. All wells were maintained in 81 nM efavirenz. […] Activation controls were treated with CD3/CD28 Dynabeads (Life Technologies, Grand Island, NY). After 7 days of incubation, supernatants from triplicate wells were pooled, centrifuged (500 g×5 min), and stored at −80°C. HIV-1 RNA levels in supernatants were determined using the COBAS® AmpliPrep/COBAS® TaqMan® HIV-1 Test, v2.0 (Roche, Indianapolis, IN).

[7] = test system: latent HIV-1 in CD8+-depleted MNC; assay type: cell-based; details: across all four donors; 0.5 or 2 µM
Excerpt: Healthy HIV-1 uninfected blood donors and HIV-1-infected donors on suppressive cART with plasma HIV-1 RNA less than 50 copies/mL for >2 year provided written informed consent and underwent a large volume phlebotomy (100–200 mLs). The protocol for blood donation was approved by the Institutional Review Board of the University of Pittsburgh (IRB #PRO10070203).
as §2, with “overnight.” for “overnight. All wells were maintained in 81 nM efavirenz.”

PI3K p110δ RNA = experiment: PI3K isoform RNA transcript levels in J89GFP cells, p110δ; assay type: cell-based; details: 5 µM
[8] = test system: HIV-1 RNA expression in resting CD4+ T cells; details: single 400 mg dose; 8 HIV-infected patients on suppressive cART; cited from earlier work

CC(=O)O[C@@]12C[C@@H](C)[C@@]3(O)[C@@H](C=C(CO)C[C@]4(O)C(=O)C(C)=C[C@@H]34)[C@@H]1C2(C)C [prostratin, reference compound]
Latent HIV-1 reactivation activity in presence of PI3K inhibitor wortmannin ([1]; 20 nM wortmannin): remained unaffected | Latent HIV-1 reactivation activity in presence of Akt Inhibitor IV ([1]; 500 nM Akt Inhibitor IV): remained unaffected | Latent HIV-1 reactivation activity in presence of PKC inhibitor Gö6983 ([1]; 500 nM Go6983): attenuated | Latent HIV-1 reactivation activity in presence of JNK inhibitor SP600125 ([1]; 1 µM SP00125): remained unaffected | Latent HIV-1 reactivation activity in presence of NFAT/calcineurin inhibitor cyclosporin A ([1]; 1 µM cyclosporin A): remained unaffected | Global T cell activation (T cell): induces global T cell activation

CCC/C=C/C=C/C(=O)O[C@H]1/C(=C/C(=O)OC)C[C@H]2C[C@H]([C@@H](C)O)OC(=O)C[C@H](O)C[C@@H]3C[C@H](OC(C)=O)C(C)(C)[C@](O)(C[C@@H]4C/C(=C/C(=O)OC)C[C@H](/C=C/C(C)(C)[C@]1(O)O2)O4)O3 [bryostatin]
Adverse event in study participants [2]: severe myalgia in all study participants

O=C(CCCCCCC(=O)Nc1ccccc1)NO [SAHA, vorinostat, reference compound]
CC50 at 24 h [3]: 10 ± 0.1 µM | CC50 at 24 h [4]: 11.3 ± 0.3 µM | CC50 at 24 h [5]: 14.1 ± 0.2 µM | CC50 at 24 h [6]: 700 nM | Capacity to increase HIV-1 expression in the CD8+-depleted MNC [7]: very limited capacity | Effect on PI3K p110δ RNA transcript levels / gene expression (PI3K p110δ RNA): significantly up-regulate | HIV-1 RNA expression in resting CD4+ T cells [8]: induced an increase in HIV-1 RNA expression
